Measured values as given in article PMC10914731, “Homo-BacPROTAC-induced degradation of ClpC1 as a strategy against drug-resistant mycobacteria” (Nature Communications, 2024).
Several values for one entry are separate records, joined by “and”; a condition that tells them apart may be missing. Identical values can stand only once. Like-named read-outs stand apart in the source and are kept apart here.

Target: ClpC1 NTD, M. smegmatis ClpC1P1P2 complex (UniProt A0R574+P9WPC9)
Assay type: biochemical
Settings: for ClpC1 NTD peak area: replicates 1 and 2; for % Response: two replicates

Sequence of ClpC1 NTD, M. smegmatis ClpC1P1P2 complex (P9WPC9 1-156, looked up, natural form): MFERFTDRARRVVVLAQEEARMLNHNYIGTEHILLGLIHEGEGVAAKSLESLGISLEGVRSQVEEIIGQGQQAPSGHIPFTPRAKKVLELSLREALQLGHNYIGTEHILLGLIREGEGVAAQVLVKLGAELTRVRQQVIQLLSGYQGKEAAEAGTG
Sequence of ClpC1 NTD, M. smegmatis ClpC1P1P2 complex (A0R574 whole entry): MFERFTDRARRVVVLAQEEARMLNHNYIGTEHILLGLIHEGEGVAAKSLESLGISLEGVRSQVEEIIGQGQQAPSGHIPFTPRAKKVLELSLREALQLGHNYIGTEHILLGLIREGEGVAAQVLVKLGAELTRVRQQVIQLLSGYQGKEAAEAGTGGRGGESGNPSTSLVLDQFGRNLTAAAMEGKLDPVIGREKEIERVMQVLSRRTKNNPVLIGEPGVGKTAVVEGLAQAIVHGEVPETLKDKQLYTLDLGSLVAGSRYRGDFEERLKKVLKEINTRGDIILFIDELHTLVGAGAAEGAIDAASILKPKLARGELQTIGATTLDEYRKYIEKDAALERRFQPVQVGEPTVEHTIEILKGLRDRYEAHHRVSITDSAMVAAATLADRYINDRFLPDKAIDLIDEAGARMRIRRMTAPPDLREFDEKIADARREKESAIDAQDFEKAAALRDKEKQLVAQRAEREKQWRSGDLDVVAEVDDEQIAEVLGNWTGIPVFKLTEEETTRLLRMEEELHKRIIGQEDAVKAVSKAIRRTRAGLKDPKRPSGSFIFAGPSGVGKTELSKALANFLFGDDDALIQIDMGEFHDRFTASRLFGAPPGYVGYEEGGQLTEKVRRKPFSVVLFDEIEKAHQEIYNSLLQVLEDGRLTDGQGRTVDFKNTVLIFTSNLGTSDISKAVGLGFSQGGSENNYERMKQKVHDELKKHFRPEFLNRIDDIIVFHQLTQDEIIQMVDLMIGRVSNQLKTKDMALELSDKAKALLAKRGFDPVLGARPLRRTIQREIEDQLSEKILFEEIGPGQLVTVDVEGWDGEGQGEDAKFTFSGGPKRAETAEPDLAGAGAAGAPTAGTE

COC(c1ccccc1)C1NC(=O)C(C)NC(=O)C(CC(C)CO)N(C)C(=O)C(Cc2cn(Cc3cn(CCOCCOCCOCCOCCn4cc(Cn5cc(CC6NC(=O)C(C(C)C)NC(=O)C(CC(C)C)N(C)C(=O)C(C(C)C)NC(=O)C(C(OC)c7ccccc7)NC(=O)C(C)NC(=O)C(CC(C)CO)N(C)C6=O)c6ccccc65)nn4)nn3)c3ccccc23)NC(=O)C(C(C)C)NC(=O)C(CC(C)C)N(C)C(=O)C(C(C)C)NC1=O (stereo not drawn) [Compound 8]
ClpC1 NTD peak area (8 µM compound, time 0 min): 331639 and 301583
% Response (8 µM compound, time 0 min): 94.5282% and 100.62%
ClpC1 NTD peak area (8 µM compound, time 45 min): 314553 and 280109
% Response (8 µM compound, time 45 min): 83.982% and 77.683%
ClpC1 NTD peak area (8 µM compound, time 90 min): 285641 and 244656
% Response (8 µM compound, time 90 min): 56.6216% and 52.7782%
ClpC1 NTD peak area (8 µM compound, time 150 min): 191892
% Response (8 µM compound, time 150 min): 43.2573%
ClpC1 NTD peak area (8 µM compound, time 240 min): 311145 and 177822
% Response (8 µM compound, time 240 min): 45.4516% and 26.6563%
ClpC1 NTD peak area (8 µM compound, time 360 min): 222125 and 221356
% Response (8 µM compound, time 360 min): 26.4436% and 30.03%
ClpC1 NTD peak area (33 µM compound, time 0 min): 810154 and 722357
% Response (33 µM compound, time 0 min): 102.812% and 94.7011%
ClpC1 NTD peak area (33 µM compound, time 45 min): 641074 and 448402
% Response (33 µM compound, time 45 min): 59.8432% and 44.7396%
ClpC1 NTD peak area (33 µM compound, time 90 min): 173883 and 214990
% Response (33 µM compound, time 90 min): 14.8318% and 19.2596%
ClpC1 NTD peak area (33 µM compound, time 150 min): 175010 and 133678
% Response (33 µM compound, time 150 min): 13.2219% and 10.0521%
ClpC1 NTD peak area (33 µM compound, time 240 min): 91238.1 and 172941
% Response (33 µM compound, time 240 min): 6.759% and 11.5705%
ClpC1 NTD peak area (33 µM compound, time 360 min): 204242 and 62562.1
% Response (33 µM compound, time 360 min): 8.812% and 3.58%
